From patent publication US20260091050A1, “ADVANTAGEOUS ANTI-HCV COMBINATION THERAPY” (Atea Pharmaceuticals, Inc., priority 2021, published 2026)
Where “and” joins values, the source holds several entries; their conditions need not be identical. Equal entries are not always repeated. Where two headings read alike, the source gives them in different places.

Tests used:
[1] = Three-part study (Parts C, D, E) of Compound 1-A: overall safety/tolerability and pharmacokinetics; type: in vivo, human
Procedure: Part C was a randomized, double-blind, placebo-controlled MAD study divided into three cohorts. […] The dose escalation only proceeded following satisfactory review of the data.
HCV-infected patients were treatment-naïve with HCV RNA ≥5 log 10 IU/mL. […] Plasma drug levels were measured using LC-MS/MS.

GT1 HCV = assay: Single ascending dose study of Compound 1-A in GT1-HCV infected patients (Part B); type: in vivo, human; details: for Mean Max Reduction of HCV RNA from baseline: GT1b HCV patients
Procedure: Subjects in Part B received a single dose of Compound 1-A in the fasting state. Patients were confined to the clinic from Day −1 to Day 6.
Part B was initiated after the safety (through Day 5) and plasma pharmacokinetic (through 24 h) data review from Cohort 3a in Part A. Available safety data (through Day 5) and pharmacokinetic data (through 24 h) was reviewed for the first cohort in Part B (Cohort 1b) before enrolling subsequent Part B cohorts. Subsequent Part B cohorts were only dosed following review of available safety and pharmacokinetic data from the respective doses in Part A as well as available safety (through Day 5) from the prior Part B cohorts.
Patients infected with HCV were treatment-naïve, non-cirrhotic GT1-infected subjects with a viral load of ≥5 log10 IU/mL.
Baseline was defined as the mean of Day −1 and Day 1 (pre-dose). […] The mean maximum HCV RNA reduction 24 hours post-dose following a single 300 mg dose was 1.7 log10 IU/mL and this compares to a −2 log 10 IU/mL reduction after 1 day of 400 mg of sofosbuvir monotherapy in GT1a HCV-infected subjects. The mean maximum HCV RNA reduction 24 hours post-dose following a single 100 mg dose was 0.8 log10 IU/mL. The mean 10 maximum HCV RNA reduction was 2.2 log10 IU/mL following a single 400 mg dose.

[2] = Single ascending dose study of Compound 1-A in healthy volunteers (Part A); type: in vivo, human
Procedure: Compound 1-A was tested in a single ascending dose (SAD) study to measure its safety, tolerability, and pharmacokinetic in healthy subjects (Part A). Part A was a randomized, double-blind, placebo-controlled SAD study. Healthy subjects in Part A received a single dose of Compound 1-A or placebo in the fasting state. Subjects were confined to the clinic from Day −1 to Day 6.
Dosing in each cohort was staggered such that 2 subjects (1 active:1 placebo) were evaluated for 48 hours after dosing before the remainder of the cohort was dosed. Each cohort received Compound 1-A in ascending order. Dosing of sequential cohorts occurred based on review of available safety data (through Day 5) and plasma pharmacokinetic data (through 24 h) of the prior cohort.
As pharmacokinetic and safety data emerged from prior cohorts, doses evaluated in Cohorts 3a-4a were adjusted by increments no more than 100 mg.
Healthy volunteers in the Part A portion of the study were male and female subjects between the ages of 18 and 65. Active and placebo recipients were pooled within each Part A cohort to preserve the study blind.

[3] = Heart and liver tissue levels of active triphosphate 4 hours after oral Compound 1-A, rat; type: in vivo; details: 4 hours after single oral dose
Procedure: High levels of the active TP were measured in the liver of all species tested.

HCV [4] = details: cited from earlier work; for viral load reduction, individual: cirrhotic
[5] = Chemical stability of Compound 1-A at 25° C./60% RH and 40° C./75% RH over 6 months; type: physicochemical; details: for Increase of percent of water: over 6 months
Procedure: The container closure system for the study was a combination medicinal valve bag with a pharmaceutical laminated film over the pouch and desiccant silica gel between the two layers. […] Bags were then stored at 25° C./60% RH (relative humidity) and 40° C./75% RH (relative humidity). Organic purity, water content, ^1HNMR, DSC and Raman were measured at Time 0, Month 1, Month 2, Month 3 and Month 6.
The sample was dissolved in acetonitrile—water (90:10) (v/v). The gradient method is shown below.

HCV [6] = assay: Emax model: HCV RNA reduction on day 7 against AUC of metabolite 1-7; type: in vivo, human; details: after 7 days QD dosing, metabolite 1-7 exposures ≥2000 ng/mL×h
[7] = Plasma levels of Compound 1 and metabolites after single oral dose of Compound 1-A, dog; type: in vivo
[8] = 25° C., Month 1, compared with Day 0
[9] = 25° C., Month 2, compared with Day 0
[10] = 25° C., Month 3, compared with Day 0
[11] = 25° C., Month 6, compared with Day 0
[12] = 40° C., Month 1, compared with Day 0
[13] = 40° C., Month 2, compared with Day 0
[14] = 40° C., Month 3, compared with Day 0
[15] = 40° C., Month 6, compared with Day 0
[16] = Dog, 30 mg/kg single oral dose, plasma

CNc1nc(N)nc2c1ncn2[C@@H]1O[C@H](CO[P@@](=O)(N[C@@H](C)C(=O)OC(C)C)Oc2ccccc2)[C@@H](O)[C@@]1(C)F [Compound 1-A, isopropyl ((S)-(((2R,3R,4R,5R)-5-(2-amino-6-(methylamino)-9H-purin-9-yl)-4-fluoro-3-hydroxy-4-methyltetrahydrofuran-2-yl)methoxy) (phenoxy)phosphoryl)-L-alaninate hemisulfate]
impact of mild hepatic impairment on PK ([1]; based on plasma exposures): did not significantly impact | low-grade lipid abnormalities (cholesterol and triglyceride increase) ([1]; compared to placebo): higher incidence | tolerability ([1]; up to 600 mg salt form for seven days): well tolerated | mean maximum HCV RNA reduction (GT1 HCV; 24 hours post-dose, single 100 mg dose): 0.8 log10 IU/mL | mean maximum HCV RNA reduction (GT1 HCV; 24 hours post-dose, single 300 mg dose, GT1b): 1.7 log10 IU/mL | Mean Max Reduction of HCV RNA from baseline (GT1 HCV; single dose, Compound 1-A equivalent of 92 mg Compound 1): 0.8 log10 IU/ml | Mean Max Reduction of HCV RNA from baseline (GT1 HCV; single dose, Compound 1-A equivalent of 275 mg Compound 1): 1.7 log10 IU/ml | Mean Max Reduction of HCV RNA from baseline (GT1 HCV; single dose, Compound 1-A equivalent of 368 mg Compound 1): 2.2 log10 IU/ml | Mean Max Reduction of HCV RNA from baseline (GT1 HCV; single dose, Compound 1-A equivalent of 550 mg Compound 1): 2.3 log10 IU/ml | intensity of adverse effects (GT1 HCV; Part B): mild to moderate | serious adverse events (GT1 HCV; Part B, GT1-HCV infected patients, single dose): No serious adverse events | mean maximum HCV RNA reduction (GT1 HCV; single 400 mg dose): 2.2 log10 IU/mL | individual maximum HCV RNA reductions (GT1 HCV; single 600 mg dose, non-cirrhotic GT1b): 2.1 log10 IU/mL and 2.3 log10 IU/mL and 2.6 log10 IU/mL | mean maximum HCV RNA reduction (GT1 HCV; single 600 mg dose, non-cirrhotic GT1b (n=3)): 2.3 log10 IU/mL | time within which the parent is metabolized (GT1 HCV; single oral dose of Compound 1-A, plasma): ≤ 8 h | intensity of adverse effects [2]: mild to moderate | serious adverse events ([2]; healthy subjects, single dose): No serious adverse events | active TP (metabolite 1-6) level in heart [3]: unquantifiable levels | active TP (metabolite 1-6) level in liver [3]: High levels | viral load reduction (HCV [4]; cirrhotic participants): 4.6 log 10 IU/mL | viral load reduction, individual (HCV [4]; GT1b, listed as bemnifosbuvir): 4.0 log 10 IU/mL (2×) and 4.5 log 10 IU/mL | viral load reduction, individual (HCV [4]; GT2): 5.0 log 10 IU/mL | viral load reduction, individual (HCV [4]; GT3, listed as bemnifosbuvir): 4.8 log 10 IU/mL and 5.2 log 10 IU/mL | viral load reduction (HCV [4]; non-cirrhotic participants): 4.5 log 10 IU/mL | Maximum Impurity Percent ([5]; 25° C., Day 0): 0.12% | Percent Purity ([5]; 25° C., Day 0): 99.82% | Percent Water ([5]; 25° C., Day 0): 1.2% | Maximum Impurity Percent ([5]; 25° C., Month 1): 0.12% | Percent Purity ([5]; 25° C., Month 1): 99.77% | Percent Water ([5]; 25° C., Month 1): 1.9% | DSC [5, 8]: The same | Raman [5, 8]: The same | ^1HNMR [5, 8]: The same | Maximum Impurity Percent ([5]; 25° C., Month 2): 0.12% | Percent Purity ([5]; 25° C., Month 2): 99.75% | Percent Water ([5]; 25° C., Month 2): 1.8% | DSC [5, 9]: The same | Raman [5, 9]: The same | ^1HNMR [5, 9]: The same | Maximum Impurity Percent ([5]; 25° C., Month 3): 0.12% | Percent Purity ([5]; 25° C., Month 3): 99.75% | Percent Water ([5]; 25° C., Month 3): 1.8% | DSC [5, 10]: The same | Raman [5, 10]: The same | ^1HNMR [5, 10]: The same | Maximum Impurity Percent ([5]; 25° C., Month 6): 0.13% | Percent Purity ([5]; 25° C., Month 6): 99.74% | Percent Water ([5]; 25° C., Month 6): 1.8% | DSC [5, 11]: The same | Raman [5, 11]: The same | ^1HNMR [5, 11]: The same | Increase of percent of water ([5]; 25° C.): approximately 0.6% | Maximum Impurity Percent ([5]; 40° C., Day 0): 0.12% | Percent Purity ([5]; 40° C., Day 0): 99.82% | Percent Water ([5]; 40° C., Day 0): 1.2% | Maximum Impurity Percent ([5]; 40° C., Month 1): 0.12% | Percent Purity ([5]; 40° C., Month 1): 99.71% | Percent Water ([5]; 40° C., Month 1): 2.0% | DSC [5, 12]: The same | Raman [5, 12]: The same | ^1HNMR [5, 12]: The same | Maximum Impurity Percent ([5]; 40° C., Month 2): 0.12% | Percent Purity ([5]; 40° C., Month 2): 99.63% | Percent Water ([5]; 40° C., Month 2): 1.9% | DSC [5, 13]: The same | Raman [5, 13]: The same | ^1HNMR [5, 13]: The same | Maximum Impurity Percent ([5]; 40° C., Month 3): 0.12% | Percent Purity ([5]; 40° C., Month 3): 99.58% | Percent Water ([5]; 40° C., Month 3): 1.9% | DSC [5, 14]: The same | Raman [5, 14]: The same | ^1HNMR [5, 14]: The same | Maximum Impurity Percent ([5]; 40° C., Month 6): 0.14% | Percent Purity ([5]; 40° C., Month 6): 99.30% | Percent Water ([5]; 40° C., Month 6): 1.9% | DSC [5, 15]: The same | Raman [5, 15]: The same | ^1HNMR [5, 15]: The same | Increase of percent of water ([5]; 40° C.): approximately 0.7% | predicted maximal viral load reduction (HCV [6]): at least 4 log units | Compound 1 Cmax [7, 16]: 1530 ng/mL | Tmax [7, 16]: 15 to 60 min | Compound 1 Tmax ([7]; Dog, 100 mg/kg single oral dose, plasma): 30 to 60 min | vomiting (animals affected) ([7]; dogs, high dose group): 5/5
